Assay results published in publication PMC7324608 (Scientific Reports, 2020).
Changes are numbered by the printed parent chain.

Tests used:
[1] = molecular target: T1, HpHtrA (Helicobacter pylori, UniProt G2J5T2); test: in vitro E-cadherin (hCdh1) cleavage by HpHtrA (Western blot); assay type: biochemical; conditions: 50 ng hCdh1, 250 ng HpHtrA, 16 h, 37 °C; for effect on HpHtrA-mediated hCdh1 cleavage/fragmentation: 1 mM
T1 construct: (HpHtrA, G18-K475, UniProt G2J5T2); GST (N, cleaved yes); made in house; host or cells: E. coli BL21
T1 sequence (G2J5T2 18-475): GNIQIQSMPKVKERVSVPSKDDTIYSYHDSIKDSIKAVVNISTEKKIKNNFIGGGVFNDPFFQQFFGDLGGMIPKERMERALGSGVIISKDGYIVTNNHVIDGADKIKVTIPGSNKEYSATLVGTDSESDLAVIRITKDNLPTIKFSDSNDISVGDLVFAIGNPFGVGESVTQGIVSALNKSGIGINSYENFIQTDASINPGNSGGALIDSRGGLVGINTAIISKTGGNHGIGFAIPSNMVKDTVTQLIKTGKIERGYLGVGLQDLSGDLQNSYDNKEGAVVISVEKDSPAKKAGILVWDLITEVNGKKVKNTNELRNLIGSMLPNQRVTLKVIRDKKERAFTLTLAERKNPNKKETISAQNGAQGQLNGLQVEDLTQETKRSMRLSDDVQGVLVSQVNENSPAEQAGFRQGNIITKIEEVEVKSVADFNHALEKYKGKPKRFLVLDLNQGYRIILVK
Source text: The proteins were separated by SDS-PAGE and visualized by staining with Coomassie Brilliant Blue G250 (Lactan, Vienna, Austria). […] Proteins were separated using SDS-PAGE and blotted onto a nitrocellulose membrane. Human Cdh1 was detected by an antibody recognizing the EC5 domain of hCdh1 (Abcam, Cambridge, UK) and a polyclonal serum was used to detect HpHtrA[22]. Independent experiments were repeated at least three times.

[2] = system: BbHtrA; design: method as in PMID 26480895; conditions: cited from earlier work
[3] = molecular target: T2, HpHtrA D165A (Helicobacter pylori, UniProt G2J5T2, D165A); test: thermal shift assay; assay type: binding; design: (HpHtrA, G18-K475, UniProt G2J5T2); GST (N, cleaved yes); made in house; host or cells: E. coli BL21
T2 sequence (G2J5T2 18-475 D165A): T1 sequence (G2J5T2 18-475) with D148A
Procedure: (§1) Recombinant HpHtrA proteins (wt, S164A, D165A, S166A, D168A) in 50 mM HEPES buffer (pH 7.4) were mixed with SYPRO Orange (Sigma-Aldrich, Vienna, Austria) to final concentrations of 4 µM HpHtrA and 7 × SYPRO Orange in a 96-well PCR plate. […] Fluorescence data was collected using an Applied Bioscience StepOne Plus PCR cycler (Thermo Fisher Scientific, Schwerte, Germany) during a temperature ramp from 25–95 °C (0.5 °C per min) with a 4 min hold at 25 °C and 95 °C. SYPRO Orange binds to exposed hydrophobic regions within the denatured HpHtrA proteins, which increases the fluorescence of the dye[57],[58]. The fluorescence emission signal can then be used to determine the melting temperature of the protein, which is located at the infliction point of the fluorescence signal curve. The experiment was performed in triplicates.

[4] = molecular target: T3, HpHtrA S166A (Helicobacter pylori, UniProt G2J5T2, S166A); test: thermal shift assay; assay type: binding; design: (HpHtrA, G18-K475, UniProt G2J5T2); GST (N, cleaved yes); made in house; host or cells: E. coli BL21
T3 sequence (G2J5T2 18-475 S166A): T1 sequence (G2J5T2 18-475) with S149A
Procedure: as §1

[5] = molecular target: T4, HpHtrA wt (Helicobacter pylori, UniProt G2J5T2); test: HpHtrA oligomerization, non-reducing SDS-PAGE; design: (HpHtrA, G18-K475, UniProt G2J5T2); GST (N, cleaved yes); made in house; host or cells: E. coli BL21
T4 sequence (G2J5T2 18-475): T1 sequence (G2J5T2 18-475)
Procedure: Non-reducing sample buffer without β-mercaptoethanol was added and the samples were separated by SDS-PAGE containing 0.1% casein (Carl Roth, Karlsruhe, Germany) as a substrate. The gel was incubated for 60 min in renaturing buffer (2.5% Triton X-100) and equilibrated for 30 min in developing buffer (50 mM Tris–HCl, pH 7.4, 200 mM NaCl, 5 mM CaCl2, and 0.02% Brij-35) at room temperature under gentle agitation. Afterwards, the gel was incubated for 24 h at 37 °C in developing buffer under gentle agitation. To visualize caseinolytic activity, the gel was stained in 0.5% Coomassie Brilliant Blue R250 (Carl Roth, Karlsruhe, Germany). For detection of multimers by SDS-PAGE, HpHtrA was separated by SDS-PAGE under non-reducing conditions. Proteins were visualized by staining with Coomassie Brilliant Blue G250. Independent experiments were repeated at least four times.

[6] = low/increasing concentrations of ion

Row | Compound | effect on HpHtrA-mediated hCdh1 cleavage/fragmentation [1] | effect on casein degradation by BbHtrA [2] | thermal destabilization (ΔTm) ([3]; compared with wt and S164A) | thermal destabilization (ΔTm) ([4]; compared with wt and S164A) | stabilization of HpHtrA wt oligomers ([5]; low concentrations, Coomassie-stained SDS-PAGE, non-reducing) | concentration that clearly inhibited HpHtrA-mediated hCdh1 fragmentation [1] [µM] | thermal stabilization (ΔTm) [3, 6] | thermal stabilization (ΔTm) [4, 6] | concentration sufficient to enhance oligomerization or the stability of HpHtrA ([5]; Coomassie-stained gel, non-reducing conditions) [µM]
1 | [Cu+2] [Cu^++, CuCl2] | strongly decreased | similarly inhibited | more strongly destabilized | more strongly destabilized | only slightly stabilized |  |  |  | 
2 | [Zn+2] [Zn^++, ZnCl2] | strongly decreased | similarly inhibited |  |  |  | 50 | did not stabilize | did not stabilize | 50
